Values joined by “and” are separate entries in the source; they are usually repeats but may differ in a detail not shown here. Equal values may be shown once.
Test system: PC-3 multi-cell spheroids, viability
Assay: Anticancer human tumor PC-3 cell line growth inhibition [IpAb];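 further: spheroids exposed to compounds for 7 days before readout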;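 on viability, T/C: 100% = DMSO vehicle control wells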
Details: for viability, T/C: stronger effect = lower value
Description: Combinatorial screen of targeted agents with ipatasertib and abemaciclib in multi-cell type tumor spheroids
A high-throughput screen of multi-cell type tumor spheroids was designed to identify active combinations of targeted small molecules and ipatasertib or abemaciclib. Complex spheroids include a stromal component modeled by human endothelial cells (HUVEC) and fibroblasts modeled by human mesenchymal stem cells (MSCs). The concentration ranges selected for each drug and investigational agent were based upon clinically achievable concentrations if the clinical Cmax of the agent was known.
Compounds. The drugs and investigational agents: ipatasertib (NSC767898), abemaciclib(NSC768073), selumetinib (NSC741078), trametinib (758246), adavosertib (NSC754352), everolimus (NSC733504), sapanisertib (NSC764658), vemurafenib (NSC761431), venetoclax (NSC766270), copanlisib (NSC809693), apelisib (NSC765974), palbociblib (NSC758247), vemurafenib (NSC761431), dabrafenib (NSC764134), ravoxertinib (NSC781343), BMS-387032 (NSC767048), sotorasib (NSC818433), talazoparib (NSC767125) and afursertib (NSC778305), were obtained from the National Cancer Institute (NCI) Developmental Therapeutics Program Chemical Repository. The FDA-approved anticancer drug set is available from the NCI Developmental Therapeutics Program. […] The stock solutions were prepared in dimethyl sulfoxide (DMSO, Sigma-Aldrich, St. Louis, MO, cat. D2650) at 800-fold the tested concentration and stored at -70 degrees C prior to their use. All drugs and investigational agents were tested over a range starting from a high concentration at or near the clinical Cmax and decreasing in half-log increments. If the clinical Cmax for an agent had not been determined, the highest concentration tested was 10 microM.
NCI60 Cell Culture. NCI60 cell lines were obtained from the NCI Developmental Therapeutics Program Tumor Repository. For each lot of cells, the Repository performed Applied Biosystems AmpFLSTR Identifiler testing with PCR amplification to confirm consistency with the published Identifier STR profile for each cell line. Cells were kept in continuous culture for no more than 20 passages. The optimal seeding densities for each of the cell lines at each time point assessed were determined prior to performing the concentration response studies. Briefly, the NCI60 human tumor lines were grown as monolayers in RPMI 1640 medium supplemented with 10% FBS and 2 mmol/L L-glutamine.
An additional 9 lines were from the NCI60 cell line panel including MDA-MB-231 breast carcinoma, MDA-MB-468 breast carcinoma, MCF7 breast carcinoma, Hs578T breast carcinoma, MALME-3M melanoma, SK-MEL-2 melanoma, SK-OV-3 ovarian carcinoma, DU-145 prostate carcinoma, PC-3 prostate carcinoma, all cell lines along with major genetic alterations are listed on Table 2. Pooled donor human umbilical vein endothelial cells (HUVEC, Lonza, cat. CC-2519) and human mesenchymal stem cells (hMSC, Lonza, cat. PT-2501) were purchased from Lonza (Walkersville, MD).
PDMR cell lines were grown in complete medium (DC medium): Dulbecco's modified Eagle's medium (DMEM)/F12 supplemented with 5% fetal bovine serum (FBS), 2 mM L-glutamine, 100 U/mL penicillin and 100 µg/ml streptomycin, 0.4 µg/ml hydrocortisone, 10 ng/ml epidermal growth factor (EGF) recombinant human protein, 24 µg/mL adenine, and 0.1 mg/mL primocin. During culture from frozen stock vials, PDMR cells were cultured in the same medium containing 10 µM Y-27632 (see Table 3). The PDCs were cultured in complete DMEM/F12 media without 10 microM Y-27632 dihydrochloride for at least two passages prior to the screen. The pooled donor HUVEC and hMSC were cultured in endothelial cell growth medium 2 (PromoCell, Heidelberg, Germany, cat. C-22011) and mesenchymal stem cell growth medium 2 (PromoCell, cat. C-28009), respectively. For all experiments, HUVEC and hMSC were used at passages </=5.
[…]

[1] = curve of first compound, second compound 0.1 µM
[2] = curve of first compound, second compound 0.316 µM
[3] = curve of first compound, second compound 1 µM
[4] = second compound 0.1 µM, first compound 0.0316 µM
[5] = second compound 0.1 µM, first compound 0.1 µM
[6] = second compound 0.316 µM, first compound 0.0316 µM
[7] = second compound 0.316 µM, first compound 0.1 µM
[8] = second compound 1 µM, first compound 0.0316 µM
[9] = second compound 1 µM, first compound 0.1 µM

## CC(C)n1nc(-c2ccc3oc(N)nc3c2)c2c(N)ncnc21
Compound 0.000316 µM
  viability, T/C: 93% and 98.7%
Compound 0.001 µM
  viability, T/C: 55.6% and 81.3%
Compound 0.00316 µM
  viability, T/C: 42.7% and 57.6%
Compound 0.01 µM
  viability, T/C: 25.8% and 25%
Compound 0.0316 µM
  viability, T/C: 11.9% and 12.8%
Compound 0.1 µM
  viability, T/C: 9.65% and 10.2%
Curve of compound
  IC50: 1.71 nM and 3.89 nM

## CC(C)NCC(C(=O)N1CCN(c2ncnc3c2C(C)CC3O)CC1)c1ccc(Cl)cc1 (stereo not given)
Compound 0.1 µM
  viability, T/C: 72.9% [middle of 13 runs]
Compound 0.316 µM
  viability, T/C: 43.7% [middle of 13 runs]
Compound 1 µM
  viability, T/C: 24.7% [middle of 12 runs]
Compound 3.16 µM
  viability, T/C: 14.9% [middle of 12 runs]
Compound 10 µM
  viability, T/C: 13.3% [middle of 13 runs]
Compound alone, run of 44348
  IC50: 249 nM [middle of 13 runs]

## C=CCn1c(=O)c2cnc(Nc3ccc(N4CCN(C)CC4)cc3)nc2n1-c1cccc(C(C)(C)O)n1 + CCN1CCN(Cc2ccc(Nc3ncc(F)c(-c4cc(F)c5nc(C)n(C(C)C)c5c4)n3)nc2)CC1
Curve of first compound, second compound 0.01 µM
  IC50: 515 nM
Curve of first compound, second compound 0.0316 µM
  IC50: 290 nM
[1]
  IC50: 446 nM
[2]
  IC50: 450 nM
[3]
  IC50: 290 nM
Second compound 0.01 µM, first compound 0.0316 µM
  viability, T/C: 66.6%
Second compound 0.01 µM, first compound 0.1 µM
  viability, T/C: 76.6%
Second compound 0.01 µM, first compound 0.316 µM
  viability, T/C: 53.7%
Second compound 0.01 µM, first compound 1 µM
  viability, T/C: 42.5%
Second compound 0.01 µM, first compound 3.16 µM
  viability, T/C: 22%
Second compound 0.01 µM, first compound 10 µM
  viability, T/C: 27.1%
Second compound 0.0316 µM, first compound 0.0316 µM
  viability, T/C: 67.4%
Second compound 0.0316 µM, first compound 0.1 µM
  viability, T/C: 54.7%
Second compound 0.0316 µM, first compound 0.316 µM
  viability, T/C: 51.9%
Second compound 0.0316 µM, first compound 1 µM
  viability, T/C: 39.6%
Second compound 0.0316 µM, first compound 3.16 µM
  viability, T/C: 24%
Second compound 0.0316 µM, first compound 10 µM
  viability, T/C: 26.4%
[4]
  viability, T/C: 59.9%
[5]
  viability, T/C: 51.2%
Second compound 0.1 µM, first compound 0.316 µM
  viability, T/C: 52.6%
Second compound 0.1 µM, first compound 1 µM
  viability, T/C: 41.4%
Second compound 0.1 µM, first compound 3.16 µM
  viability, T/C: 24%
Second compound 0.1 µM, first compound 10 µM
  viability, T/C: 24.5%
[6]
  viability, T/C: 59.6%
[7]
  viability, T/C: 56.3%
Second compound 0.316 µM, first compound 0.316 µM
  viability, T/C: 52.2%
Second compound 0.316 µM, first compound 1 µM
  viability, T/C: 43.2%
Second compound 0.316 µM, first compound 3.16 µM
  viability, T/C: 26.3%
Second compound 0.316 µM, first compound 10 µM
  viability, T/C: 24.9%
[8]
  viability, T/C: 55.7%
[9]
  viability, T/C: 53.3%
Second compound 1 µM, first compound 0.316 µM
  viability, T/C: 51.1%
Second compound 1 µM, first compound 1 µM
  viability, T/C: 38.7%
Second compound 1 µM, first compound 3.16 µM
  viability, T/C: 31.6%
Second compound 1 µM, first compound 10 µM
  viability, T/C: 25.1%

## Cn1ncnc1[C@H]1c2n[nH]c(=O)c3cc(F)cc(c23)N[C@@H]1c1ccc(F)cc1 + CC(C)NCC(C(=O)N1CCN(c2ncnc3c2C(C)CC3O)CC1)c1ccc(Cl)cc1
[1]
  IC50: 13.3 nM
[2]
  IC50: < 0.316 nM
[3]
  IC50: < 0.316 nM
Curve of first compound, second compound 3.16 µM
  IC50: < 0.316 nM
Curve of first compound, second compound 10 µM
  IC50: < 0.316 nM
Second compound 0.1 µM, first compound 0.000316 µM
  viability, T/C: 78.5%
Second compound 0.1 µM, first compound 0.001 µM
  viability, T/C: 71.4%
Second compound 0.1 µM, first compound 0.00316 µM
  viability, T/C: 52.4%
Second compound 0.1 µM, first compound 0.01 µM
  viability, T/C: 51.8%
[4]
  viability, T/C: 51.6%
[5]
  viability, T/C: 40.1%
Second compound 0.316 µM, first compound 0.000316 µM
  viability, T/C: 47.1%
Second compound 0.316 µM, first compound 0.001 µM
  viability, T/C: 43.8%
Second compound 0.316 µM, first compound 0.00316 µM
  viability, T/C: 42.9%
Second compound 0.316 µM, first compound 0.01 µM
  viability, T/C: 40.3%
[6]
  viability, T/C: 37.9%
[7]
  viability, T/C: 32.8%
Second compound 1 µM, first compound 0.000316 µM
  viability, T/C: 25.3%
Second compound 1 µM, first compound 0.001 µM
  viability, T/C: 23.3%
Second compound 1 µM, first compound 0.00316 µM
  viability, T/C: 25.2%
Second compound 1 µM, first compound 0.01 µM
  viability, T/C: 18.4%
[8]
  viability, T/C: 19.9%
[9]
  viability, T/C: 18.7%
Second compound 3.16 µM, first compound 0.000316 µM
  viability, T/C: 14.2%
Second compound 3.16 µM, first compound 0.001 µM
  viability, T/C: 14.1%
Second compound 3.16 µM, first compound 0.00316 µM
  viability, T/C: 14.7%
Second compound 3.16 µM, first compound 0.01 µM
  viability, T/C: 13.1%
Second compound 3.16 µM, first compound 0.0316 µM
  viability, T/C: 13.2%
Second compound 3.16 µM, first compound 0.1 µM
  viability, T/C: 13.8%
Second compound 10 µM, first compound 0.000316 µM
  viability, T/C: 14.8%
Second compound 10 µM, first compound 0.001 µM
  viability, T/C: 14%
Second compound 10 µM, first compound 0.00316 µM
  viability, T/C: 13.3%
Second compound 10 µM, first compound 0.01 µM
  viability, T/C: 11%
Second compound 10 µM, first compound 0.0316 µM
  viability, T/C: 11.6%
Second compound 10 µM, first compound 0.1 µM
  viability, T/C: 11.3%

## Cn1cnc2c(F)c(Nc3ccc(Br)cc3Cl)c(C(=O)NOCCO)cc21
Compound 0.00949 µM
  viability, T/C: 105% and 99.8%
Compound 0.03 µM
  viability, T/C: 113% and 107%
Compound 0.0949 µM
  viability, T/C: 96.4% and 95.3%
Compound 0.3 µM
  viability, T/C: 85.1% and 96%
Compound 0.949 µM
  viability, T/C: 91.9% and 91%
Compound 3 µM
  viability, T/C: 65.1% and 73.2%
Curve of compound
  IC50: > 3000 nM
